Assay results reported in publication PMC7397269, “Synthesis and Evaluation of New Coumarin Derivatives as Antioxidant, Antimicrobial, and Anti-Inflammatory Agents” (Molecules, 2020).
Values after ≈ are worked out from the molar mass of the structure shown. Values joined by “and” are separate entries in the source; they are usually repeats but may differ in a detail not shown here. Identical values can stand only once. Like-named read-outs stand apart in the source and are kept apart here.

Tests used:
[1] = DPPH antioxidant assay (radical scavenging); assay type: biochemical; settings: mean ± SD (n = 3)
In short: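 Compounds, starting at 200 μg/mL, were mixed with 0.2 mM methanolic DPPH and incubated 30 min in the dark at 25 °C; absorbance was read at 515 nm. % inhibition is background-corrected against DPPH-only control, with IC50 from curve fit. Runs were triplicate (mean ± SD), with ascorbic acid as positive control.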

trypsin = assay: Proteinase-inhibitory activity; assay type: biochemical; settings: 250 µg/mL; mean ± SD (n = 3)
In short: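 Trypsin (0.06 mg per 2 mL, 20 mM Tris-HCl pH 7.4) was preincubated 5 min with test sample at 250 µg/mL, then 0.8% casein was added for 20 min. Perchloric acid stopped the reaction and supernatant absorbance was read at 280 nm. % inhibition is relative to the no-sample control, in triplicate.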

[2] = test system: Candida albicans NRRL Y-477; assay: MIC, two-fold serial dilution, C. albicans; assay type: cell-based; settings: NRRLY477, read-out: Minimum inhibitory concentration, CA
Description: (§1) The new molecules were individually tested for their antimicrobial activity in vitro against standard bacteria strains from the American Type Culture Collection (ATCC), namely, Staphylococcus aureus ATCC 29213, Bacillus subtilis ATCC 6633, Bacillus megaterium ATCC 9885 (Gram-positive), Escherichia coli ATCC 2592, and Pseudomonas aeruginosa ATCC 27,953 (Gram-negative). The compounds were also microbiologically tested against locally isolated Saccharomyces cerevisiae (yeast) and the standard Agricultural Research Service Culture Collection (NRRL) strain of the yeast-like pathogenic fungus Candida albicans NRRL Y-477. Primary screening was conducted using the agar well diffusion method using nutrient agar (NA) medium and Sabourand dextrose agar (SDA) medium for the tested pathological bacteria and yeast, respectively. […].
(§2) The bacteriostatic activity of the active compounds (having IZ > 16 mm) was then evaluated using the two-fold serial dilution technique. Two-fold serial dilutions of the tested compounds solutions were prepared using the proper nutrient broth to reach final concentrations of 1000, 500, 250, and 125 μg/mL. The tubes were then inoculated with the test microorganisms grown in their suitable broth at 37 °C for 24 h (1 × 10^8 CFU/mL for bacteria and 1 × 10^6 CFU/mL of yeast), 0.1 mL of the above inoculum was administered per 5 mL, and the tubes were incubated at 37 °C for 24 h. The lowest concentration showing no growth was taken as the MIC.

[3] = test system: Bacillus megaterium ATCC 9885; assay: Agar well diffusion, B. megaterium; assay type: cell-based; settings: Priestia megaterium, ATCC9885, 100 μL of 10 mg/mL in DMSO, read-out: diameter of inhibition zone, BM
In short: (§3)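 Wells (10 mm) in nutrient agar (bacteria, 1 × 10^8 CFU/mL) or Sabouraud dextrose agar (yeast, 1 × 10^6 CFU/mL) loaded with 100 μL of 10 mg/mL compound in DMSO. Plates incubated 24 h at 37 °C. Inhibition zone diameter (mm), mean of triplicates.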

[4] = test system: Pseudomonas aeruginosa ATCC 27,953; assay: Agar well diffusion, P. aeruginosa; assay type: cell-based; settings: ATCC27, 100 μL of 10 mg/mL in DMSO, read-out: diameter of inhibition zone, PA
In short: as §3

[5] = test system: Saccharomyces cerevisiae local isolate; assay: Agar well diffusion, S. cerevisiae; assay type: cell-based; settings: read-out: diameter of inhibition zone, SC
In short: as §3

[6] = test system: Escherichia coli ATCC 2592; assay: MIC, two-fold serial dilution, E. coli; assay type: cell-based; settings: ATCC2592, read-out: Minimum inhibitory concentration, EC
Description: as §1, §2

[7] = test system: Staphylococcus aureus ATCC 29213; assay: MIC, two-fold serial dilution, S. aureus; assay type: cell-based; settings: ATCC29213, read-out: Minimum inhibitory concentration, SA
Description: as §1, §2

[8] = test system: Escherichia coli ATCC 2592; assay: Agar well diffusion, E. coli; assay type: cell-based; settings: ATCC2592, 100 μL of 10 mg/mL in DMSO, read-out: diameter of inhibition zone, EC
In short: as §3

[9] = test system: Bacillus subtilis ATCC 6633; assay: Agar well diffusion, B. subtilis; assay type: cell-based; settings: ATCC6633, 100 μL of 10 mg/mL in DMSO, read-out: diameter of inhibition zone, BS
In short: as §3

[10] = test system: Pseudomonas aeruginosa ATCC 27,953; assay: MIC, two-fold serial dilution, P. aeruginosa; assay type: cell-based; settings: ATCC27, read-out: Minimum inhibitory concentration, PA
Description: as §1, §2

[11] = test system: Candida albicans NRRL Y-477; assay: Agar well diffusion, C. albicans; assay type: cell-based; settings: NRRLY477, 100 μL of 10 mg/mL in DMSO, read-out: diameter of inhibition zone, CA
In short: as §3

[12] = test system: Bacillus subtilis ATCC 6633; assay: MIC, two-fold serial dilution, B. subtilis; assay type: cell-based; settings: ATCC6633, read-out: Minimum inhibitory concentration, BS
Description: as §1, §2

[13] = test system: Staphylococcus aureus ATCC 29213; assay: Agar well diffusion, S. aureus; assay type: cell-based; settings: ATCC29213, 100 μL of 10 mg/mL in DMSO, read-out: diameter of inhibition zone, SA
In short: as §3

[14] = test system: Saccharomyces cerevisiae local isolate; assay: MIC, two-fold serial dilution, S. cerevisiae; assay type: cell-based; settings: read-out: Minimum inhibitory concentration, SC
Description: as §1, §2

tested microorganisms = assay: MIC, summary over the tested microorganisms; assay type: cell-based; settings: two-fold serial dilution
Description: as §1, §2

[15] = test system: Bacillus megaterium ATCC 9885; assay: MIC, two-fold serial dilution, B. megaterium; assay type: cell-based; settings: Priestia megaterium, ATCC9885, read-out: Minimum inhibitory concentration, BM
Description: as §1, §2

COX-2 = target: T1, COX-2 (Homo sapiens, UniProt P35354); assay: COX-2 inhibition, Cayman assay kit; assay type: biochemical; settings: for IC50: mean of two determinations; for SI, selectivity index (COX-1/COX-2): ratio of COX-1/COX-2 IC50
T1 construct: purchased Cayman Chemical 701080
T1 sequence (P35354 18-604): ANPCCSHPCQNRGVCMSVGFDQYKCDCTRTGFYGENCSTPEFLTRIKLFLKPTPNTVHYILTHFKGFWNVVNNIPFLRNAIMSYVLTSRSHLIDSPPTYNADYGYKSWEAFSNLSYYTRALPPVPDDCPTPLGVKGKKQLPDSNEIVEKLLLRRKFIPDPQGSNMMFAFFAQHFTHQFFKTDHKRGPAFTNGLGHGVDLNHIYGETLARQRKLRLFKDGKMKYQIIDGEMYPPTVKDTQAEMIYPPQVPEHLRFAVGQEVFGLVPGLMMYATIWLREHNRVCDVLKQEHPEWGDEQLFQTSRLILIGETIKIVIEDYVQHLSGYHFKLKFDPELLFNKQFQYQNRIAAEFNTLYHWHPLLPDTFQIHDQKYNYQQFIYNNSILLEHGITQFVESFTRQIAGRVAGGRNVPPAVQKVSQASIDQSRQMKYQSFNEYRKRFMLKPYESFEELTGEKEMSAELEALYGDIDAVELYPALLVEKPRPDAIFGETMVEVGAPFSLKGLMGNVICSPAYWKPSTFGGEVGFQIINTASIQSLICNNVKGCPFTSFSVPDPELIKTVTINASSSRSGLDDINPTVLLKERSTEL

COX-1 = target: T2, COX-1 (Homo sapiens, UniProt P23219); assay: COX-1 inhibition, Cayman assay kit; assay type: biochemical; settings: mean of two determinations
T2 construct: purchased Cayman Chemical 701070
T2 sequence (P23219 24-599): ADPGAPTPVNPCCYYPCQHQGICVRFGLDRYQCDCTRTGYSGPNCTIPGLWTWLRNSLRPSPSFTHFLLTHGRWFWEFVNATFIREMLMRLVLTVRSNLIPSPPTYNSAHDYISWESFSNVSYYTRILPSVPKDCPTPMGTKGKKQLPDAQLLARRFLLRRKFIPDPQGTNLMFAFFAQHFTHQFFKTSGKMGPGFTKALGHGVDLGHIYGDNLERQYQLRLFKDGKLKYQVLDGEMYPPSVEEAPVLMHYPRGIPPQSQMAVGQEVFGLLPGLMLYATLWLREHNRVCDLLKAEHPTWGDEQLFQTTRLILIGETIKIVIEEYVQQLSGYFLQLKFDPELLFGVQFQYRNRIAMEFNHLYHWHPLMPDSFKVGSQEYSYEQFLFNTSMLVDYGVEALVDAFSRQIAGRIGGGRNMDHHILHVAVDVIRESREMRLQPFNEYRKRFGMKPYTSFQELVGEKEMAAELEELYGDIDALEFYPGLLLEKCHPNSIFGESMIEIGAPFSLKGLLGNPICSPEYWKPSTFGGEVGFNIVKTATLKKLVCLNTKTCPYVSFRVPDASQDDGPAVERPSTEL

[16] = test system: formaldehyde-induced rat paw oedema; assay: Formaldehyde-induced rat paw oedema (prophylactic); assay type: in vivo; settings: for paw volume reduced compared to positive control: 25 mg/kg orally
[17] = well diffusion, 100 μL of 10 mg/mL in DMSO, S. cerevisiae
[18] = two-fold serial dilution, S. cerevisiae
[19] = read-out: MIC against one or more tested microorganisms

Structure (SMILES) | IC50 [1] | % Inhibition (proteinase) (trypsin) [%] | MIC [2] [µg/mL] | zone of inhibition at 10000 µg/mL [3] [mm] | zone of inhibition at 10000 µg/mL [4] [mm] | zone of inhibition at 10000 µg/mL [5, 17] [mm] | MIC [6] [µg/mL] | MIC [7] [µg/mL] | zone of inhibition at 10000 µg/mL [8] [mm] | zone of inhibition at 10000 µg/mL [9] [mm] | MIC [10] [µg/mL] | zone of inhibition at 10000 µg/mL [11] [mm] | MIC [12] [µg/mL] | zone of inhibition at 10000 µg/mL [13] [mm] | MIC [14, 18] [µg/mL] | melting point [°C] | MIC (tested microorganisms; [19]) [µg/mL] | MIC [15] [µg/mL] | IC50 (COX-2) [µM] | SI, selectivity index (COX-1/COX-2) (COX-2) | further results
Cc1ccc2oc(=O)c(S(=O)(=O)Nc3ccc(C(=O)/C=C/c4ccc(Cl)cc4)cc3)c(O)c2c1 [9d, (E)-N-(4-(3-(4-chlorophenyl)acryloyl)phenyl)-4-hydroxy-6-methyl-2-oxo-2H-chromene-3-sulfonamide] | — ((—): inactive (IC50 > 200 μg/mL)) | 31.88 ± 3.82 | 125 (≈ 252 µM) | 29 | 29 | 31 to 32 | 250 (≈ 504 µM) | 250 (≈ 504 µM) | 38 | 29 | 250 (≈ 504 µM) | 30 | 250 (≈ 504 µM) | 28 | 125 (≈ 252 µM) | 141 to 143 | 125 (≈ 252 µM) | 250 (≈ 504 µM) |  |  | 
Cc1ccc2oc(=O)c3c(c2c1)OC(N)=C(C(N)=O)C3c1ccc([N+](=O)[O-])cc1 (racemic) [3a, (±)-2-Amino-9-methyl-4-(4-nitrophenyl)-5-oxo-4H,5H-pyrano[3,2-c]chromene-3-carboxamide] | — ((—): inactive (IC50 > 200 μg/mL)) | 79.72 ± 4.51 |  | 16 | 15 |  |  |  | 16 | 18 |  | < 15 | 1000 (≈ 2540 µM) | < 15 |  | 142 to 144 |  |  | 9.81 | 18.68 | zone of inhibition at 10000 µg/mL [5]: < 15 mm; IC50 (COX-1): 183 µM; % inhibition of paw oedema ([16]; 2.5 mg/kg orally, 1 h after inducing inflammation): 29.2%
O=C(/C=C/c1ccc(Cl)cc1)c1ccc(NS(=O)(=O)c2c(O)c3cc(Cl)ccc3oc2=O)cc1 [9c, (E)-6-Chloro-N-(4-(3-(4-chlorophenyl)acryloyl)phenyl)-4-hydroxy-2-oxo-2H-chromene-3-sulfonamide] | — ((—): inactive (IC50 > 200 μg/mL)) | 17.6 ± 6.86 | 125 (≈ 242 µM) | 30 | 30 | 31 to 32 | 250 (≈ 484 µM) | 250 (≈ 484 µM) | 30 | 29 | 250 (≈ 484 µM) | 30 | 250 (≈ 484 µM) | 28 | 125 (≈ 242 µM) | 157 to 159 | 125 (≈ 242 µM) | 250 (≈ 484 µM) |  |  | 
COc1ccc2c(c1)c(CC(=O)O)c(C)n2C(=O)c1ccc(Cl)cc1 [Indomethacin, reference compound] |  |  |  |  |  |  |  |  |  |  |  |  |  |  |  |  |  |  |  |  | paw volume reduced compared to positive control ([16]; 1 h after formaldehyde): 72.09%; paw volume reduced compared to positive control ([16]; 2 h after formaldehyde): 74.79%; paw volume reduced compared to positive control ([16]; 3 h after formaldehyde): 71.5%
Cc1ccc2oc(=O)c3c(c2c1)OC(/N=C/c1ccccc1)=C(C#N)C3c1ccc([N+](=O)[O-])cc1 (racemic) [5a, (±)-2-(benzylideneamino)-9-methyl-4-(4-nitrophenyl)-5-oxo-4H,5H-pyrano[3,2-c]chromene-3-carbonitrile] | — ((—): inactive (IC50 > 200 μg/mL)) |  | 500 (≈ 1080 µM) | 22 | 24 |  | 250 (≈ 539 µM) | 250 (≈ 539 µM) | 26 | 27 | 500 (≈ 1080 µM) | 25 | 250 (≈ 539 µM) | 25 |  | 208 to 209 |  | 500 (≈ 1080 µM) | 7.41 | 152 and 152.02 | zone of inhibition at 10000 µg/mL [5]: 26 mm; IC50 (COX-1): 1130 µM; MIC [14]: 500 µg/mL (≈ 1080 µM); MIC (tested microorganisms; read-out: MIC against most tested microorganisms): 250 to 500 µg/mL (≈ 539 to 1080 µM)
